Laboratory results published in paper PMC10152663, “SEC14-GOLD protein PATELLIN2 binds IRON-REGULATED TRANSPORTER1 linking root iron uptake to vitamin E” (Plant Physiology, 2022).

Biological target: T1, PATELLIN2 (PATL2) (Arabidopsis thaliana, UniProt Q56ZI2)
T1 construct: Strep-tagged PATL2 (full length), recombinant from E. coli
T1 sequence (Q56ZI2 2-683): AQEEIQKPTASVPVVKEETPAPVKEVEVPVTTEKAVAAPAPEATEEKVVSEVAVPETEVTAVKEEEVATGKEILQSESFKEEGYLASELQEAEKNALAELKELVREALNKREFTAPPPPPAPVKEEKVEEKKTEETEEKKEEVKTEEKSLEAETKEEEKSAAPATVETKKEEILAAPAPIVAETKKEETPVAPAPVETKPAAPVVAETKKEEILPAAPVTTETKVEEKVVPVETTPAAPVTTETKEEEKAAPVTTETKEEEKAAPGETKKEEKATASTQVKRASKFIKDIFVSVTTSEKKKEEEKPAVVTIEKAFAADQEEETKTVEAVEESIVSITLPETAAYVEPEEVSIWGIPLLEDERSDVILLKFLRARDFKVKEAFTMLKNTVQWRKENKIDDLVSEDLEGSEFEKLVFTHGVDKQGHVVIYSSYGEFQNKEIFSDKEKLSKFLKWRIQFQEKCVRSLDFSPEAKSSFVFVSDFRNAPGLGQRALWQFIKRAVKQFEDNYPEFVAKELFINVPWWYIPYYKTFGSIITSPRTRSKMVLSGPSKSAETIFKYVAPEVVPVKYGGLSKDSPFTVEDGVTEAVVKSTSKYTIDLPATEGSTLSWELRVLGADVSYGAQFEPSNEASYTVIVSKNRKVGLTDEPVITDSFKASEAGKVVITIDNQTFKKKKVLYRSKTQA
Assay: spectrofluorimetric titration of NBD fluorescence with […] purified protein
Assay type: binding

Kd: 86 nM
Substance: NBD-α-tocopherol [NBD-Toc]
